In US7534814B2, “Mutilin derivatives and their use as antibacterials” (Nabriva Therapeutics AG, priority 1999, dated 2009):
≈ marks a conversion by molar mass, not a printed value. Read-outs that look alike come from different tables or passages of the source.

Tests used:
Format in all cases: cell-based
[1] = test system: Staphylococcus aureus MSSA; assay: MIC in Agar Dilution Test or Micro Dilution Test (NCCLS M7-A4); settings: examples tested in the form of a hydrochloride
Description: (§1) For example, the active compounds of the present invention show antimicrobial, e.g. antibacterial activity against gram negative bacterias, such as Escherichia coli; and against gram positive bacteria, such as Staphylococcus aureus, Streptococcus pyogenes, Streptococcus pneumonlae, Mycoplasms, Chlamydia and obligatory anaerobes, e.g. Bacteroides fragilis; in vitro in the Agar Dilution Test or Microdilution Test according to National Commitee for Clinical Laboratory Standards (NCCLS) 1997, Document M7-A4 Vol.17, No. 2: “Methods for dilution Antimicrobial Susceptibility Tests for Bacteria that Grow Aerobically—Fourth Edition, Approved Standard”; and e.g. in vivo in systemic infections in mice.
(§2) The active compounds of the invention show an surprising overall activity spectrum. For example, it has been determined that the active compounds of the present invention show surprising activity in vitro against Enterococcus faecium, including vancomycin-resistant strains; against Staphylococcus aureus including methicillin sensitive (MSSA) and methicdllin-resistant (MRSA) strains; and against Streptococcus pneumoniae including penicillin-resistant strains; e.g. in the Agar Dilution Test or in the Micro Dilution Test in Mueller-Hinton agar or Mueller-Hinton broth with or without supplements according to the approved standard reference methods of the National Committee for Clinical Laboratory Standards (NCCLS), Document M7-A4 for aerobic bacteria.

[2] = test system: Staphylococcus aureus MRSA; assay: as above
Description: as §1, §2

[3] = test system: penicillin-resistant Streptococcus pneumoniae; assay: as above
Description: as §1, §2

[4] = test system: Enterococcus faecalis strain ATCC 29212; assay: MIC in Agar Dilution Test or Microdilution Test; settings: examples tested in the form of an hydrochloride
Description: as §1

**Q.** How did the MIC [1] turn out when `C=C[C@]1(C)C[C@@H](OC(=O)CSc2cccc(NC(=O)[C@H]3CCCCN3)c2)[C@]2(C)[C@H](C)CC[C@]3(CCC(=O)[C@H]32)[C@@H](C)[C@@H]1O` [Example 1] was run?
**A.** The MIC was “ca. 0.025 μg/ml”.

**Q.** And the MIC [2]?
**A.** Its MIC is no more than 0.0125 µg/mL.

**Q.** `C=C[C@]1(C)C[C@@H](OC(=O)CSc2cccc(N)c2)[C@]2(C)[C@H](C)CC[C@]3(CCC(=O)[C@H]32)[C@@H](C)[C@@H]1O` [Example 52, 14-O-[(3-Amino-phenylsulfanyl)acetyl]mutilin] was tested. Which MIC [1] did it give?
**A.** The MIC was “ca. 0.025 μg/ml”.

**Q.** How did the MIC [3] turn out when `CC[C@H]1OC(=O)[C@H](C)[C@@H](O[C@H]2C[C@@](C)(OC)[C@@H](O)[C@H](C)O2)[C@H](C)[C@@H](O[C@@H]2O[C@H](C)C[C@H](N(C)C)[C@H]2O)[C@](C)(O)C[C@@H](C)CN(C)[C@H](C)[C@@H](O)[C@]1(C)O` [azithromycin] was run?
**A.** The MIC was greater than 2.56 µg/mL.

**Q.** And the MIC ([1]; read-out: MIC)?
**A.** The MIC was roughly 1.6 µg/mL (≈ 2.14 µM).

**Q.** And the MIC ([2]; read-out: MIC)?
**A.** The MIC was greater than 25.6 µg/mL.

**Q.** Which MIC [4] does the source give for `CC[C@H]1OC(=O)[C@H](C)[C@@H](O[C@H]2C[C@@](C)(OC)[C@@H](O)[C@H](C)O2)[C@H](C)[C@@H](O[C@@H]2O[C@H](C)C[C@H](N(C)C)[C@H]2O)[C@](C)(O)C[C@@H](C)C(=O)[C@H](C)[C@@H](O)[C@]1(C)O` [erythromycin A] here?
**A.** Its MIC is “ca. 1.6 μg/ml”.
